Source: patent US20250145594A1, “MODULATORS OF THE INTEGRATED STRESS PATHWAY” (Calico Life Sciences LLC, priority 2020, published 2025)

System: ATF4 luciferase reporter in HEK293T cells
Assay: ATF4-Luc assay (in vitro model of VWMD)
Assay type: cell-based, human
Conditions: Homo sapiens, HEK-293T, 7 h, HEK293T cells carrying the ATF4 luciferase reporter, 1 μg/mL tunicamycin, One Glo luminescence
Summary of the method: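 Stable HEK293T line expressing firefly luciferase behind the human ATF4 5′-UTR, treated with 1 μg/mL tunicamycin plus compound for 7 hours. Luminescence read with One Glo; EC50 determined.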

O=C(NC12CC(n3cc(CCOC(F)(F)F)cn3)(C1)C2)[C@H]1C[C@@H](O)c2cc(Cl)c(F)cc2O1 [Compound 515, (2R,4R)-6-chloro-7-fluoro-4-hydroxy-N-(3-{4-[2-(trifluoromethoxy)ethyl]-1H-pyrazol-1-yl}bicyclo[1.1.1]pentan-1-yl)-3,4-dihydro-2H-1-benzopyran-2-carboxamide]
EC50: 0.01 to 0.05 µM

O=C(NC12CC(n3cc(C(=O)N4CC[C@@H](OC(F)(F)F)C4)cn3)(C1)C2)[C@H]1C[C@@H](O)c2cc(Cl)ccc2O1 [Compound 370, (2R,4R)-6-chloro-4-hydroxy-N-(3-{4-[(3R)-3-(trifluoromethoxy)pyrrolidine-1-carbonyl]-1H-pyrazol-1-yl}bicyclo[1.1.1]pentan-1-yl)-3,4-dihydro-2H-1-benzopyran-2-carboxamide]
EC50: 0.01 to 0.05 µM

O=C(NC12CC(OCC(=O)N3CCC(OC(F)(F)F)C3)(C1)C2)[C@H]1C[C@@H](O)c2cc(Cl)ccc2O1 (stereo partly drawn) [Compound 334, (2R,4R)-6-chloro-4-hydroxy-N-(3-{2-oxo-2-[3-(trifluoromethoxy)pyrrolidin-1-yl]ethoxy}bicyclo[1.1.1]pentan-1-yl)-3,4-dihydro-2H-1-benzopyran-2-carboxamide]
EC50: 0.05 to 0.25 µM

COc1ccc2nn(C34CC(NC(=O)[C@H]5C[C@@H](O)c6cc(Cl)c(F)cc6O5)(C3)C4)cc2n1 [Compound 506, (2R,4R)-6-chloro-7-fluoro-4-hydroxy-N-[3-(5-methoxy-2H-pyrazolo[4,3-b]pyridin-2-yl)bicyclo[1.1.1]pentan-1-yl]-3,4-dihydro-2H-1-benzopyran-2-carboxamide]
EC50: < 0.01 µM

O=C(NC12CC(n3cc(-c4ccc(C(F)(F)F)cn4)cn3)(C1)C2)[C@H]1C[C@@H](O)c2cc(C(F)(F)F)ccc2O1 [Compound 354, (2R,4R)-4-hydroxy-6-(trifluoromethyl)-N-(3-{4-[5-(trifluoromethyl)pyridin-2-yl]-1H-pyrazol-1-yl}bicyclo[1.1.1]pentan-1-yl)-3,4-dihydro-2H-1-benzopyran-2-carboxamide]
EC50: < 0.01 µM

O=C(NC12CC(n3cc(OCCOC(F)(F)F)cn3)(C1)C2)[C@H]1C[C@@H](O)c2cc(Cl)c(Cl)cc2O1 [Compound 442, (2R,4R)-6,7-dichloro-4-hydroxy-N-(3-{4-[2-(trifluoromethoxy)ethoxy]-1H-pyrazol-1-yl}bicyclo[1.1.1]pentan-1-yl)-3,4-dihydro-2H-1-benzopyran-2-carboxamide]
EC50: < 0.01 µM

O=C(NC12CC(n3ccc([C@H]4C[C@@H](OC(F)(F)F)C4)n3)(C1)C2)[C@H]1C[C@@H](O)c2cc(Cl)ccc2O1 [Compound 314, (2R,4R)-6-chloro-4-hydroxy-N-(3-{3-[cis-3-(trifluoromethoxy)cyclobutyl]-1H-pyrazol-1-yl}bicyclo[1.1.1]pentan-1-yl)-3,4-dihydro-2H-1-benzopyran-2-carboxamide]
EC50: 0.05 to 0.25 µM

O=C(NC12CC(c3ccc(C(=O)N4CC[C@H](OC(F)(F)F)C4)cn3)(C1)C2)[C@H]1C[C@@H](O)c2cc(Cl)ccc2O1 [Compound 534, (2R,4R)-6-chloro-4-hydroxy-N-(3-{5-[(3S)-3-(trifluoromethoxy)pyrrolidine-1-carbonyl]pyridin-2-yl}bicyclo[1.1.1]pentan-1-yl)-3,4-dihydro-2H-1-benzopyran-2-carboxamide]
EC50: 0.01 to 0.05 µM

O=C(NC12CC(n3cc(-c4ccc(OC(F)(F)F)cn4)cn3)(C1)C2)[C@H]1C[C@@H](O)c2cc(C(F)(F)F)ccc2O1 [Compound 403, (2R,4R)-4-hydroxy-N-(3-{4-[5-(trifluoromethoxy)pyridin-2-yl]-1H-pyrazol-1-yl}bicyclo[1.1.1]pentan-1-yl)-6-(trifluoromethyl)-3,4-dihydro-2H-1-benzopyran-2-carboxamide]
EC50: < 0.01 µM

O=C(NC12CC(n3cc(-c4cnn(CC(F)(F)F)c4)cn3)(C1)C2)[C@H]1C[C@@H](O)c2cc(Cl)c(F)cc2O1 [Compound 564, (2R,4R)-6-chloro-7-fluoro-4-hydroxy-N-{3-[1′-(2,2,2-trifluoroethyl)-1H,1′H-[4,4′-bipyrazol]-1-yl]bicyclo[1.1.1]pentan-1-yl}-3,4-dihydro-2H-1-benzopyran-2-carboxamide]
EC50: < 0.01 µM

COc1ccc2nn(C34CC(NC(=O)[C@H]5C[C@@H](O)c6cc(Cl)c(Cl)cc6O5)(C3)C4)cc2c1 [Compound 507, (2R,4R)-6,7-dichloro-4-hydroxy-N-[3-(5-methoxy-2H-indazol-2-yl)bicyclo[1.1.1]pentan-1-yl]-3,4-dihydro-2H-1-benzopyran-2-carboxamide]
EC50: < 0.01 µM

O=C(COc1ccc(Cl)cc1O)NC12CC(n3cc(OCCOC(F)(F)F)cn3)(C1)C2 [Compound 616, 2-(4-chloro-2-hydroxyphenoxy)-N-(3-{4-[2-(trifluoromethoxy)ethoxy]-1H-pyrazol-1-yl}bicyclo[1.1.1]pentan-1-yl)acetamide]
EC50: < 0.01 µM

O=C(NC12CC(n3cc(-c4ccc(OC(F)(F)F)cn4)cn3)(C1)C2)[C@H]1C[C@@H](O)c2cc(Cl)c(F)cc2O1 [Compound 361, (2R,4R)-6-chloro-7-fluoro-4-hydroxy-N-(3-{4-[5-(trifluoromethoxy)pyridin-2-yl]-1H-pyrazol-1-yl}bicyclo[1.1.1]pentan-1-yl)-3,4-dihydro-2H-1-benzopyran-2-carboxamide]
EC50: < 0.01 µM

O=C(NC12CC(n3cc(-c4ccc(C(F)(F)F)cn4)cn3)(C1)C2)C1CNc2cc(C(F)(F)F)c(F)cc2O1 (stereo not drawn) [Compound 591, 7-fluoro-6-(trifluoromethyl)-N-(3-{4-[5-(trifluoromethyl)pyridin-2-yl]-1H-pyrazol-1-yl}bicyclo[1.1.1]pentan-1-yl)-3,4-dihydro-2H-1,4-benzoxazine-2-carboxamide]
EC50: 0.01 to 0.05 µM

O=C(CO[C@H]1C[C@@H](OC(F)(F)F)C1)NC12CC(NC(=O)[C@H]3C[C@@H](O)c4cc(C(F)(F)F)ccc4O3)(C1)C2 [Compound 493, (2R,4R)-4-hydroxy-N-[3-(2-{[(1s,3S)-3-(trifluoromethoxy)cyclobutyl]oxy}acetamido)bicyclo[1.1.1]pentan-1-yl]-6-(trifluoromethyl)-3,4-dihydro-2H-1-benzopyran-2-carboxamide]
EC50: < 0.01 µM

O=C(COc1ccc(Cl)c(F)c1)NC12CC(c3ccnc(OCCCOC(F)(F)F)c3)(C1)C2 [Compound 453, 2-(4-chloro-3-fluorophenoxy)-N-(3-{2-[3-(trifluoromethoxy)propoxy]pyridin-4-yl}bicyclo[1.1.1]pentan-1-yl)acetamide]
EC50: < 0.01 µM

O=C(NC12CC(n3cc(C(=O)N4CCC(F)(F)C4)cn3)(C1)C2)[C@H]1C[C@@H](O)c2cc(Cl)ccc2O1 [Compound 384, (2R,4R)-6-chloro-N-{3-[4-(3,3-difluoropyrrolidine-1-carbonyl)-1H-pyrazol-1-yl]bicyclo[1.1.1]pentan-1-yl}-4-hydroxy-3,4-dihydro-2H-1-benzopyran-2-carboxamide]
EC50: 0.25 to 0.5 µM

O=C(NC12CC(n3cc(-c4ccc(OC(F)(F)F)cn4)cn3)(C1)C2)[C@@H]1C[C@@H](O)c2cc(C(F)(F)F)ccc2O1 [Compound 550, (2S,4R)-4-hydroxy-N-(3-{4-[5-(trifluoromethoxy)pyridin-2-yl]-1H-pyrazol-1-yl}bicyclo[1.1.1]pentan-1-yl)-6-(trifluoromethyl)-3,4-dihydro-2H-1-benzopyran-2-carboxamide]
EC50: < 0.01 µM
